Measurements as given in US6337341B1 (priority 1996, dated 2002).

In the case of `Cc1nnsc1CN.Cl` [Compound No. 220, 5-aminomethyl-4-methyl-1,2,3-thiadiazole hydrochloride], the melting point was greater than 250 °C.
For `COC(=O)/C=C\c1snnc1C` [Compound No. 341, methyl (Z)-3-(4-methyl-1,2,3-thiadiazol-5-yl)-2-propenate], the melting point was 80 to 85 °C.
Work on `Cc1nnsc1-c1nnc(S)o1` [Compound No. 102, 5-(5-mercapto-1,3,4-oxadiazol-2-yl)-4-methyl-1,2,3-thiadiazole] yielded a melting point of 182 °C.
With `Cc1nnsc1CS(=O)(=O)c1ccccc1` the melting point was 118 °C.
With `COC(=O)c1csc(-c2snnc2-c2ccccc2)n1` the melting point was 124 °C.
Work on `COC(=O)/C=C/c1snnc1C` [Compound No. 338, methyl (E)-3-(4-methyl-1,2,3-thiadiazol-5-yl)-2-propenate] yielded a melting point of 70 °C.
For `CSc1nnc(-c2snnc2C)o1`, the melting point was 65 °C.
